Laboratory results published in patent publication US20070292888A1, “Methods for Measuring Enzyme Activities in Cells, Blood, Tumors and Tissues” (GEN-PATH PHARMACEUTICALS, INC., priority 2004, published 2007).

Experiments:
[1] = biological target: T1, glucose-6-phosphate dehydrogenase (G6PDH) (Mus musculus, UniProt Q00612); experiment: Glucose-6-phosphate dehydrogenase activity in tissues of treated mice (fluorescence NADPH assay); type: in vivo; conditions: 11 days i.p. twice per day, various organs
T1 construct: from tissue; host or cells: mouse tumor, blood, brain, heart, kidney, liver, lung, spleen (crude lysates)
Description: Blood samples from mice were taken (40 μl whole blood) serially or from mice sacrificed at the end of the experiment. Tissues, such as tumors (e.g. from implantation, xenograft, or arising spontaneously), brain, heart, kidney, liver, lung and spleen were taken and flash frozen in liquid nitrogen or on dry ice and stored in −80° C. until time of assay. Four volumes of cold lysis buffer (20 mM HEPES, pH 7.5, 1 mM EDTA, 0.2 g/l Triton X-100® and 0.2 g/L sodium deoxycholate, supplemented with 1 mM DTT and 1 mM PMSF just before use) were added to the blood, which was dissolved by vortexing. For blood that was frozen before coagulation, a clear lysate was obtained. […]
Each reaction was monitored for the appearance of NADH (for transketolase, alpha-ketoglutarate dehydrogenase, pyruvate dehydrogenase) or NADPH (for glucose-6-phosphate dehydrogenase) at room temperature in a fluorescent plate reader with excitation at 340 nm and emission at 470 nm in kinetic mode. The velocity was determined by the slope of the initial linear range of increasing fluorescence, expressed in fluorescent units (FU)/min. The protein concentration in the lysate was determined using Bradford assays (BioRad) with BSA as a standard. […]
We measured enzyme activity in an expanded panel of tissues from mice treated with N3PT or OxyT for 11 days i.p., twice per day. […]

TK = biological target: T2, TK (Homo sapiens, UniProt P29401); experiment: Thiamine competition and washout time course of TK inhibition in cells; type: cell-based; set-up: endogenous in cells; host or cells: HCT116; conditions: HCT116 cells, TDM, thiamine 0-12 μM, 48 hours; 12 μM thiamine overcomes inhibition
T2 sequence (P29401 1-623): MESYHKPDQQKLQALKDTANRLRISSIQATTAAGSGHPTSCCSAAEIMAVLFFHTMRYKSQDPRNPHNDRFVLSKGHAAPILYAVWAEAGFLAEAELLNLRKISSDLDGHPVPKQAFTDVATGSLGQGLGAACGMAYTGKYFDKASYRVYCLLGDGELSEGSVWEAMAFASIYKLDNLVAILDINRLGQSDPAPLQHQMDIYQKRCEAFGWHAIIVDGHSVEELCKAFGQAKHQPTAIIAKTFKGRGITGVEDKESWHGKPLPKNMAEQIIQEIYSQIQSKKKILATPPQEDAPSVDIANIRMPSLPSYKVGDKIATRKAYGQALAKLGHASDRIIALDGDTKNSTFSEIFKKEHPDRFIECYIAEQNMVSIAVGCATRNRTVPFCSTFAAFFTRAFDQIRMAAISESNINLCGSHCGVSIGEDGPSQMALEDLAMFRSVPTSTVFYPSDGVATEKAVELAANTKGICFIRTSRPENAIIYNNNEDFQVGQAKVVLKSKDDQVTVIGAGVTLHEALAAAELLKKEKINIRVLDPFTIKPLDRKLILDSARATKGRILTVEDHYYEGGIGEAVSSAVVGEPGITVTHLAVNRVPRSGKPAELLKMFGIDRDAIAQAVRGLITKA
Description: HCT116 cells were plated in clear-bottomed 96-well culture plates, at a density of 8000 cells/well in TDM. The following morning, N3PT and different amounts of thiamine (12 μM, 2.4 μM, 0.48 μM, 0.096 μM, 0.0192 μM, 0 μM) were added to the cells. Forty-eight hours later, plates were inverted to remove media and blotted on paper towels to remove residual media. Plates were immediately assayed for enzymatic TK activity. 80 μl of lysis buffer was added to each well, and the cells incubated at RT for 10 min to allow cell lysis. After lysis, 20 μl of the aforementioned 5× reaction mix was added to each well to initiate the reaction. Reactions were monitored as described above.
Cells were plated in TDM media 24 hours earlier, different concentration of N3PT and 100 nM thiamine were added to the cells and treated for 48 hour to allow N3PT to exert its inhibitory effect (day 2; d2). The media was then changed to contain only 100 nM thiamine and one plate was assayed every day for the next five days (d3 to d7).

T1 sequence (Q00612 whole entry): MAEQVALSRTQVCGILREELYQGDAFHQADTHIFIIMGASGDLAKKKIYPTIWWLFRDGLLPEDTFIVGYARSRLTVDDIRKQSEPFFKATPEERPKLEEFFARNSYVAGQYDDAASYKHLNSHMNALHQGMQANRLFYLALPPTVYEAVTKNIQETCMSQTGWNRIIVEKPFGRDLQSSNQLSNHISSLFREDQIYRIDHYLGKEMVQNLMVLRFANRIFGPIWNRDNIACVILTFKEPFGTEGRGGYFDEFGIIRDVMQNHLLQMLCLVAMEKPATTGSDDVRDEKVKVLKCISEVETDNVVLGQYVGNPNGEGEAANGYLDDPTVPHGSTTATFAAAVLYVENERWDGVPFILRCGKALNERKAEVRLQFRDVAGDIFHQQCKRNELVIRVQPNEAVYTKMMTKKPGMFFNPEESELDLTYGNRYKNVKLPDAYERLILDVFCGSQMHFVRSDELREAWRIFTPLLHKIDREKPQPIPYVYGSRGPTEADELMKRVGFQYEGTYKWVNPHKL

G6PDH enzymatic activity following treatment [1]: no significant decrease
SMILES: Cc1ccc(C[n+]2csc(CCO)c2C)c(N)n1 [N3PT, 3-[(2-amino-6-methyl-3-pyridinyl)methyl]-5-(2-hydroxyethyl)-4-methyl thiazolium]
Inhibition of TK in the presence of increased concentrations of thiamine (TK): reduced by thiamine in a concentration dependent manner
